According to patent US7501430B2 (ArQule, Inc., priority 2006, dated 2009):
Like-named read-outs stand apart in the source and are kept apart here.

Target: T1, mutant B-RAF (Homo sapiens, UniProt P15056, V600E)
T1 construct: purchased Upstate (Charlottesville, Va.)
Test: RAF biochemical assay (MEK-1 phosphorylation, anti-phospho MEK1/2 detection)
Conditions: for inhibition at 10 µM: read-out: Mutant B-RAF % inhibition
Method: Materials: The RAF kinases and the anti-phospho MEK1/2 antibody were from Upstate (Charlottesville, Va.). The RAF substrate used was full length N-terminal GST-MEK-1, which was expressed in E. coli and purified in-house by HPLC. All proteins were aliquoted and stored at −80° C.
Compounds were serially diluted in assay buffer containing 1% DMSO and 20 μL of test compound at a concentration 3-fold more than the final concentration, and were added to a polypropylene V-well reaction plate. Vehicle control wells received buffer only with DMSO at equivalent concentrations to the test wells. […] These reaction plates were incubated at room temperature for 30 minutes. Capture of MEK-1 was initiated by transferring 50 μl of the reaction mixture to a Nunc Maxisorp™ microplate that is designed for non-specific protein capture. After 30 minute capture of MEK-1 at room temperature, this plate was washed with TBST (6×200 μL/well) to fully terminate the reaction. The plate was then blocked for 1 hour by the addition of 100 μl/well of Superblock™ in phosphate buffered saline (PBS) blocking reagent. Plate was again washed with TBST (6 times with 200 μL/well), followed by the addition of 70 μL/well of Upstate anti-phospho MEK 1/2 diluted 1:1000 in Pierce Superblock (PBS). After a 60 minute incubation, this plate was washed with TBST (6 times with 200 μL/well), and 70 μL of the secondary antibody (Pierce Alkaline Phosphatase tagged goat anti-rabbit) prepared at 1:4000 in Superblock, were added. After a 45 minute incubation at room temperature, the wells of the microplate were washed with TBST (6 times with 200 μL/well), and thereafter 100 μl/well of Attophos™ fluorescent alkaline phosphatase substrate was added according to the manufacturer's instructions (JBL Scientific).

T1 sequence (P15056 whole entry V600E): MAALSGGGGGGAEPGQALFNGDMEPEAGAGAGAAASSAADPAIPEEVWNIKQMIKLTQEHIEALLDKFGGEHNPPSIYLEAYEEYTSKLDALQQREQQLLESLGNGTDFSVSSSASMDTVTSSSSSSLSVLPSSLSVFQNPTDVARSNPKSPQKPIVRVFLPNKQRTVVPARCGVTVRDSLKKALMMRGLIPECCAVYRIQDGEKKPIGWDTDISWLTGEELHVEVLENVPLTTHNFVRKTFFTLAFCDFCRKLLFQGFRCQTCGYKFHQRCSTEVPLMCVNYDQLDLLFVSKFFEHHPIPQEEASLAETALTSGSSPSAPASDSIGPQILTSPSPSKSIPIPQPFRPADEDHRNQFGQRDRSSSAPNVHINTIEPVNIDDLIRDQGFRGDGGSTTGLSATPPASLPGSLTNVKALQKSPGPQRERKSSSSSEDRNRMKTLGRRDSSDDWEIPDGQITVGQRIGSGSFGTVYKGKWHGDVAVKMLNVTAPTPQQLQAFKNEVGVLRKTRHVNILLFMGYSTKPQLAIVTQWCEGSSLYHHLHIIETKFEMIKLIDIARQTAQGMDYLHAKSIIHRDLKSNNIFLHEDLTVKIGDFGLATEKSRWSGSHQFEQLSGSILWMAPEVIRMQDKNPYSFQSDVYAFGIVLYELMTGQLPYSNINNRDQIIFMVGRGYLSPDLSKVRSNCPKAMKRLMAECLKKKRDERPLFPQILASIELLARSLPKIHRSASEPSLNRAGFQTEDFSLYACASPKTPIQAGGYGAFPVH

Structure (SMILES): COc1ccc(-c2nc3sccn3c2-c2ccnc(NC3CCCN(S(=O)(=O)c4ccc(Cl)cc4)C3)n2)cc1OC (stereo in doubt) [Example 135, N-{(3R)-1-[(4-chlorophenyl)sulfonyl]piperidin-3-yl}-4-[6-(3,4-dimethoxyphenyl)imidazo[2,1-b][1,3]thiazol-5-yl]pyrimidin-2-amine]
- IC50 (read-out: Mutant B-RAF IC50): 0.696 µM

Structure (SMILES): O=S(=O)(c1ccc(F)cc1)N1CCCC(Nc2nccc(-c3c(-c4ccc(F)cc4)nc4sccn34)n2)C1 (stereo not shown) [Example 2, 4-[6-(4-fluorophenyl)imidazo[2,1-b][1,3]thiazol-5-yl]-N-{1-[(4-fluorophenyl)sulfonyl]piperidin-3-yl}pyrimidin-2-amine]
- IC50 (read-out: Mutant B-RAF IC50): 0.458 µM

Structure (SMILES): Fc1ccc(CN2CCCC(Nc3nccc(-c4c(-c5ccc(F)cc5)nc5sccn45)n3)C2)cc1 (stereo not shown) [Example 4]
- inhibition at 10 µM (@ 10 uM): 55%

Structure (SMILES): Cc1ccc(NC(=O)N2CCC[C@@H](Nc3nccc(-c4c(-c5ccc(F)cc5)nc5occn45)n3)C2)cc1 [Example 17]
- inhibition at 10 µM (@ 10 uM): 16%

Structure (SMILES): CN(C)c1ccc(NC(=O)N2CCC[C@@H](Nc3nccc(-c4c(-c5ccc(F)cc5)nc5occn45)n3)C2)cc1 [Example 24, (3R)-N-[4-(dimethyl-amino)phenyl]-3-({4-[6-(4-fluorophenyl)imidazo[2,1-b][1,3]oxazol-5-yl]pyrimidin-2-yl}amino)piperidine-1-carboxamide]
- inhibition at 10 µM (@ 10 uM): 60%

Structure (SMILES): O=C(NCc1ccco1)N1CCC[C@@H](Nc2nccc(-c3c(-c4ccc(F)cc4)nc4occn34)n2)C1 [Example 25, (3R)-3-({4-[6-(4-fluorophenyl)imidazo[2,1-b][1,3]oxazol-5-yl]pyrimidin-2-yl}amino)-N-(2-furylmethyl)piperidine-1-carboxamide]
- inhibition at 10 µM (@ 10 uM): 35%

Structure (SMILES): O=C(c1ccccc1)N1CCC[C@@H](Nc2nccc(-c3c(-c4ccc(F)cc4)nc4occn34)n2)C1 [Example 26, N-[(3R)-1-benzoylpiperidin-3-yl]-4-[6-(4-fluorophenyl)imidazo[2,1-b][1,3]oxazol-5-yl]pyrimidin-2-amine]
- IC50 (read-out: Mutant B-RAF IC50): 0.195 µM

Structure (SMILES): COc1ccc(C(=O)N2CCC[C@@H](Nc3nccc(-c4c(-c5ccc(F)cc5)nc5occn45)n3)C2)cc1 [Example 27, 4-[6-(4-fluorophenyl)imi-dazo[2,1-b][1,3]oxazol-5-yl]-N-[(3R)-1-(4-methoxy-benzoyl)piperidin-3-yl]pyri-midin-2-amine]
- IC50: 4.89 µM

Structure (SMILES): O=C(c1ccc(F)cc1)N1CCC[C@@H](Nc2nccc(-c3c(-c4ccc(F)cc4)nc4occn34)n2)C1 [Example 28, N-[(3R)-1-(4-fluorobenzoyl)piperidin-3-yl]-4-[6-(4-fluorophenyl)imi-dazo[2,1-b][1,3]oxazol-5-yl]pyrimidin-2-amine]
- IC50: 0.184 µM

Structure (SMILES): O=C(COc1ccc(Cl)cc1)N1CCC[C@@H](Nc2nccc(-c3c(-c4ccc(F)cc4)nc4occn34)n2)C1 [Example 29, N-{(3R)-1-[(4-chlorophenoxy)acetyl]piper-idin-3-yl}-4-[6-(4-fluorophenyl)imidazo[2,1-b][1,3]oxazol-5-yl]pyrimidin-2-amine]
- IC50 (read-out: Mutant B-RAF IC50): 1.82 µM

Structure (SMILES): COCC(=O)N1CCC[C@@H](Nc2nccc(-c3c(-c4ccc(F)cc4)nc4occn34)n2)C1 [Example 30, 4-[6-(4-fluorophenyl)imi-dazo[2,1-b][1,3]oxazol-5-yl]-N-[(3R)-1-(methoxyacetyl)piperidin-3-yl]pyrimidin-2-amine]
- IC50: 0.711 µM

Structure (SMILES): O=C(C1CCCCC1)N1CCC[C@@H](Nc2nccc(-c3c(-c4ccc(F)cc4)nc4occn34)n2)C1 [Example 31, N-[(3R)-1-(cyclohexylcarbonyl)piperidin-3-yl]-4-[6-(4-fluorophenyl)imidazo[2,1-b][1,3]oxazol-5-yl]pyrimidin-2-amine]
- IC50 (read-out: Mutant B-RAF IC50): 2.95 µM

Structure (SMILES): O=C(c1ccncc1)N1CCC[C@@H](Nc2nccc(-c3c(-c4ccc(F)cc4)nc4occn34)n2)C1 [Example 32, 4-[6-(4-fluorophenyl)imi-dazo[2,1-b][1,3]oxazol-5-yl]-N-[(3R)-1-isonicotinoylpiper-idin-3-yl]pyrimidin-2-amine]
- IC50: 0.362 µM

Structure (SMILES): O=C(c1ccco1)N1CCC[C@@H](Nc2nccc(-c3c(-c4ccc(F)cc4)nc4occn34)n2)C1 [Example 33, 4-[6-(4-fluorophenyl)imi-dazo[2,1-b][1,3]oxazol-5-yl]-N-[(3R)-1-(2-furoyl)piperidin-3-yl]pyrimidin-2-amine]
- IC50: 2.17 µM

Structure (SMILES): CCC(=O)N1CCC[C@@H](Nc2nccc(-c3c(-c4ccc(F)cc4)nc4occn34)n2)C1 [Example 34, 4-[6-(4-fluorophenyl)imi-dazo[2,1-b][1,3]oxazol-5-yl]-N-[(3R)-1-propionylpiperidin-3-yl]pyrimidin-2-amine]
- IC50: 1.58 µM

Structure (SMILES): NCC(=O)N1CCC[C@@H](Nc2nccc(-c3c(-c4ccc(F)cc4)nc4occn34)n2)C1 [Example 35, N-[(3R)-1-(aminoacetyl)piper-idin-3-yl]-4-[6-(4-fluorophenyl)imidazo[2,1-b][1,3]oxazol-5-yl]pyrimidin-2-amine]
- inhibition at 10 µM (@ 10 uM): 11%

Structure (SMILES): CC(C)(N)C(=O)N1CCC[C@@H](Nc2nccc(-c3c(-c4ccc(F)cc4)nc4occn34)n2)C1 [Example 36, N-[(3R)-1-(2-amino-2-methylpropanoyl)piperidin-3-yl]-4-[6-(4-fluorophenyl)imi-dazo[2,1-b][1,3]oxazol-5-yl]pyrimidin-2-amine]
- IC50: 4.52 µM

Structure (SMILES): O=C([C@@H]1CCCN1)N1CCC[C@@H](Nc2nccc(-c3c(-c4ccc(F)cc4)nc4occn34)n2)C1 [Example 37, 4-[6-(4-fluorophenyl)imi-dazo[2,1-b][1,3]oxazol-5-yl]-N-[(3R)-1-L-prolylpiperidin-3-yl]pyrimidin-2-amine]
- IC50: > 5 µM

Structure (SMILES): O=C(CCc1ccccc1)N1CCC[C@@H](Nc2nccc(-c3c(-c4ccc(F)cc4)nc4occn34)n2)C1 [Example 38, 4-[6-(4-fluorophenyl)imi-dazo[2,1-b][1,3]oxazol-5-yl]-N-[(3R)-1-(3-phenylpro-panoyl)piperidin-3-yl]pyr-imidin-2-amine]
- IC50: 2.9 µM

Structure (SMILES): CN(C)c1ccc(C(=O)N2CCC[C@@H](Nc3nccc(-c4c(-c5ccc(F)cc5)nc5occn45)n3)C2)cc1 [Example 39, N-{(3R)-1-[4-(dimethyl-amino)benzoyl]piperidin-3-yl}-4-[6-(4-fluorophenyl)imidazo[2,1-b][1,3]oxazol-5-yl]pyrimidin-2-amine]
- IC50 (read-out: Mutant B-RAF IC50): 0.477 µM

Structure (SMILES): CC(C)CC(=O)N1CCC[C@@H](Nc2nccc(-c3c(-c4ccc(F)cc4)nc4occn34)n2)C1 [Example 40, 4-[6-(4-fluorophenyl)imi-dazo[2,1-b][1,3]oxazol-5-yl]-N-[(3R)-1-(3-methylbuta-noyl)piperidin-3-yl]pyrimidin-2-amine]
- IC50: 0.142 µM

Structure (SMILES): O=C(N1CCOCC1)N1CCC[C@@H](Nc2nccc(-c3c(-c4ccc(F)cc4)nc4occn34)n2)C1 [Example 41, 4-[6-(4-fluorophenyl)imi-dazo[2,1-b][1,3]oxazol-5-yl]-N-[(3R)-1-(morpholin-4-ylcarbonyl)piperidin-3-yl]pyrimidin-2-amine]
- inhibition at 10 µM: 38%

Structure (SMILES): O=S(=O)(c1ccccc1)N1CCC[C@@H](Nc2nccc(-c3c(-c4ccc(F)cc4)nc4occn34)n2)C1 [Example 42, 4-[6-(4-fluorophenyl)imi-dazo[2,1-b][1,3]oxazol-5-yl]-N-[(3R)-1-(phenylsulfonyl)piperidin-3-yl]pyrimidin-2-amine]
- Mutant B-RAF % inhibition (@ 10 uM): 68 @ 10 uM %

Structure (SMILES): O=S(=O)(c1ccc(Cl)cc1)N1CCC[C@@H](Nc2nccc(-c3c(-c4ccc(F)cc4)nc4occn34)n2)C1 [Example 43, N-{(3R)-1-[(4-chlorophenyl)sulfonyl]piper-idin-3-yl}-4-[6-(4-fluorophenyl)imidazo[2,1-b][1,3]oxazol-5-yl]pyrimidin-2-amine]
- IC50 (read-out: Mutant B-RAF IC50): 0.143 µM

Structure (SMILES): COc1ccc(S(=O)(=O)N2CCC[C@@H](Nc3nccc(-c4c(-c5ccc(F)cc5)nc5occn45)n3)C2)cc1 [Example 44, 4-[6-(4-fluorophenyl)imi-dazo[2,1-b][1,3]oxazol-5-yl]-N-{(3R)-1-[(4-methoxy-phenyl)sulfonyl]piperidin-3-yl}pyrimidin-2-amine]
- Mutant B-RAF % inhibition (@ 10 uM): 45 @ 10 uM %

Structure (SMILES): Cc1ccc(S(=O)(=O)N2CCC[C@@H](Nc3nccc(-c4c(-c5ccc(F)cc5)nc5occn45)n3)C2)cc1 [Example 45, 4-[6-(4-fluorophenyl)imi-dazo[2,1-b][1,3]oxazol-5-yl]-N-{(3R)-1-[(4-methylphenyl)sulfonyl]piperidin-3-yl}pyr-imidin-2-amine]
- IC50: 0.59 µM

Structure (SMILES): O=S(=O)(c1cccc(C(F)(F)F)c1)N1CCC[C@@H](Nc2nccc(-c3c(-c4ccc(F)cc4)nc4occn34)n2)C1 [Example 46, 4-[6-(4-fluorophenyl)imi-dazo[2,1-b][1,3]oxazol-5-yl]-N-((3R)-1-{[3-(trifluoro-methyl)phenyl]sulfonyl}piper-idin-3-yl)pyrimidin-2-amine]
- Mutant B-RAF % inhibition (@ 10 uM): 19 @ 10 uM %

Structure (SMILES): O=S(=O)(c1ccc(F)c(Cl)c1)N1CCC[C@@H](Nc2nccc(-c3c(-c4ccc(F)cc4)nc4occn34)n2)C1 [Example 47, N-{(3R)-1-[(3-chloro-4-fluorophenyl)sulfonyl]piper-idin-3-yl}-4-[6-(4-fluorophenyl)imidazo[2,1-b][1,3]oxazol-5-yl]pyrimidin-2-amine]
- IC50 (read-out: Mutant B-RAF IC50): 0.963 µM
